One series concerns the target T1, Lipolase (Thermomyces lanuginosus, UniProt O59952).
T1 sequence (O59952 23-291): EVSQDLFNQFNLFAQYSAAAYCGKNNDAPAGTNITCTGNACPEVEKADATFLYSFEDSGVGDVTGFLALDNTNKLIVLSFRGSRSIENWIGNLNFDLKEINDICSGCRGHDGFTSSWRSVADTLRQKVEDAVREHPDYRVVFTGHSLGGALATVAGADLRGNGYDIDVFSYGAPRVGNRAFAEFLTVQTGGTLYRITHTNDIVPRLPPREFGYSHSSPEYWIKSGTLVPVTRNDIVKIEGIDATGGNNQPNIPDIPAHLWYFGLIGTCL
Description: Enzyme stability: Lipolase-catalyzed hydrolysis monitored by pH-stat titration. It is filed as biochemical. The note with it: for MEAN SLOPE: Tris-HCl pH 8.0, 30° C., acid production titrated with 0.1N NaOH; for STABILITY / REL VELOCITY: Lipolase hydrolysis; for STABILITY: fold relative to α-methyl D-glucose monolaurate; for REL VELOCITY: relative to α-methyl D-glucose monolaurate = 100. As for the experimental part: Enzyme catalyzed hydrolysis of uronates was monitored using a TitraLab (Radiometer, Copenhagen) pH-stat autotitrator. Emulsified substrate was prepared by mixing water (5 mL), 1-butanol (1 mL), acacia gum (1 g), and substrate (0.357 mmoles) using a homogenizer (Omni-mixer, OCI Instruments)for 15 minutes. Emulsified substrate (5 mL) was mixed with Tris-HCl buffer (20 mL, 100 mM, pH 8.0) and equilibrated at 30° C. in a thermostatic reaction cup. Lipolase (20.5 LU) was added to initiate the reaction and the production of acid was monitored by titration with 0.1N NaOH.

The nature of series [1]: Wash cycle stability (t1/2) by automatic titrator. The note with it: 40° C., pH=10, 8.13×10^-3 M concentration; 8130 µM. It is filed as physicochemical. On the procedure: The wash cycle stability or half-life (t1/2) of decyl(methyl α-D-galactopyranosid)uronate was determined using an automatic titrator at 40° C., pH=10, 8.13×10^-3 M concentration.

With `CCCCCCCCCCCC(=O)OC[C@H]1OC(O)[C@H](O)[C@@H](O)[C@@H]1O` (stereo partly drawn) [D-Glucose Mono-laurate, D-glucose monolaurate], the “MEAN SLOPE” value on Lipolase (Lipolase 20.5 LU) came to 1.6880. Also, at Lipolase, the STABILITY is 2.4 X and the “REL VELOCITY” value is on record as 42.

For the compound `CCCCCCCCCCOC(=O)[C@H]1O[C@H](OC)[C@H](O)[C@@H](O)[C@H]1O` [Decyl(Methyl α-D-Galactopyranosid)uronate], the “Wash cycle stability or half-life (t1/2)” value in series [1] is 7.9 h.

With `CCCCCCCCCCOC(=O)[C@H]1O[C@@H](OC)[C@H](O)[C@@H](O)[C@H]1O` [Decyl(Methyl β-D-Galactopyranosid)uronate], on Lipolase (Lipolase 20.5 LU), the “MEAN SLOPE” value is given as 0.7101. Besides, on Lipolase, the STABILITY was 5.6 X and the “REL VELOCITY” value was found to be 18.

As for `CCCCCCOC(=O)[C@H]1O[C@H](OC)[C@H](O)[C@@H](O)[C@H]1O` [Hexyl(Methyl α-D-Galactopyranosid)uronate], the “Enzyme stability to lipolase hydrolysis (in words)” value at Lipolase (Lipolase 20.5 LU, pH 8.0, 30° C.) is reported as “very stable/slow hydrolysis”.

In the case of `CCCCCCCCCCCC(=O)OC[C@H]1O[C@H](OC)[C@H](O)[C@@H](O)[C@@H]1O` [α-Methyl D-Glucose Monolaurate, α-methyl D-glucose monolaurate], the “MEAN SLOPE” value on Lipolase (Lipolase 20.5 LU) amounted to 3.9921. Further, on Lipolase, the STABILITY came out at 1 X and the “REL VELOCITY” value was determined as 100.

Values taken from US5728670A, “Enzymatically stable alkyl (alkyl glycosid) uronates as nonionic surfactants and a process for their manufacture” (Lever Brothers Company, Division of Conopco, Inc., priority 1993, dated 1998).
